Test results from PMC8131363 (Scientific Reports, 2021).
Where two headings read alike, the source gives them in different places.

What was measured:
[1] = target: T1, hCaSR (Homo sapiens, UniProt P41180); assay: hCaSR transiently expressed in HEK293/natClytin, agonist luminescence assay; type: cell-based
T1 construct: expressed in transfected cells; host or cells: HEK293/natClytin (transient, pcDNA6 as delivered by GeneArt)
T1 sequence (P41180 20-1078): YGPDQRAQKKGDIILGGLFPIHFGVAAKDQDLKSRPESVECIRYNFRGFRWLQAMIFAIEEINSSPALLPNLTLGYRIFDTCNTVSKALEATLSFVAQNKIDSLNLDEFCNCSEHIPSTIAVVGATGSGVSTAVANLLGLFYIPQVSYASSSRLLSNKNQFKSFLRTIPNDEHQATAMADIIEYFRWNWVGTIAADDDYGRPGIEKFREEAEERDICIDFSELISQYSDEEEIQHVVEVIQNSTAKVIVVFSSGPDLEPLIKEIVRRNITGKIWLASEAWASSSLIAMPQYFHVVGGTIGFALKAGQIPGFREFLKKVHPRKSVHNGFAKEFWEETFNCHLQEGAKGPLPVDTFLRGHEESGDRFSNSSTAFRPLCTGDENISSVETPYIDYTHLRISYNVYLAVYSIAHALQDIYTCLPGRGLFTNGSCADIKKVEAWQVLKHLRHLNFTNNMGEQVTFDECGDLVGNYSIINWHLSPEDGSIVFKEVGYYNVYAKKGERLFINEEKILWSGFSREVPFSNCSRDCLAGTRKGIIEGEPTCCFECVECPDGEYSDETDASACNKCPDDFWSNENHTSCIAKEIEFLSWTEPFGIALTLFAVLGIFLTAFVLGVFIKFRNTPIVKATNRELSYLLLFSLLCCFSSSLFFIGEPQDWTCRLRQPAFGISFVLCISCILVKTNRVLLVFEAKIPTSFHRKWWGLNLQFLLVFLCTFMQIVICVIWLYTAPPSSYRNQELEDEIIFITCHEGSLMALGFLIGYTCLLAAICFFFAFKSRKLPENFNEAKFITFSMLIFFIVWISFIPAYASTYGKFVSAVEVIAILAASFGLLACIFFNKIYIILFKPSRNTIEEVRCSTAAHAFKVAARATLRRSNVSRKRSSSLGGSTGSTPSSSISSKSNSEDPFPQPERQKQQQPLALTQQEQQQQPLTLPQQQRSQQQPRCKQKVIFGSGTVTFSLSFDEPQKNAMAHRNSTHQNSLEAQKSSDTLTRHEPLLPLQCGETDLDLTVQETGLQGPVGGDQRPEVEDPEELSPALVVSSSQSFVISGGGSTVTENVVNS
Protocol: (§1) The coding sequence of the Felis catus[52] and Homo sapiens[53] CaSR gene was synthesised by GeneArt (Thermo Fisher Scientific). The cat coding sequence was excised from the GeneArt construct and inserted in pcDNA3.1 for constitutive and transient expression or pcDNA5/ TO for inducible expression. For the human sequence the pcDNA6 vector as delivered by GeneArt was used without further sub-cloning.
(§2) All transient transfections were performed with Lipofectamine 2000 (Invitrogen) according to the manufacturer’s protocol.

[2] = target: T2, cCaSR (Felis catus, UniProt C7FF08); assay: cCaSR transiently expressed in HEK293/natClytin, agonist luminescence assay; type: cell-based
T2 sequence (C7FF08 1-1081): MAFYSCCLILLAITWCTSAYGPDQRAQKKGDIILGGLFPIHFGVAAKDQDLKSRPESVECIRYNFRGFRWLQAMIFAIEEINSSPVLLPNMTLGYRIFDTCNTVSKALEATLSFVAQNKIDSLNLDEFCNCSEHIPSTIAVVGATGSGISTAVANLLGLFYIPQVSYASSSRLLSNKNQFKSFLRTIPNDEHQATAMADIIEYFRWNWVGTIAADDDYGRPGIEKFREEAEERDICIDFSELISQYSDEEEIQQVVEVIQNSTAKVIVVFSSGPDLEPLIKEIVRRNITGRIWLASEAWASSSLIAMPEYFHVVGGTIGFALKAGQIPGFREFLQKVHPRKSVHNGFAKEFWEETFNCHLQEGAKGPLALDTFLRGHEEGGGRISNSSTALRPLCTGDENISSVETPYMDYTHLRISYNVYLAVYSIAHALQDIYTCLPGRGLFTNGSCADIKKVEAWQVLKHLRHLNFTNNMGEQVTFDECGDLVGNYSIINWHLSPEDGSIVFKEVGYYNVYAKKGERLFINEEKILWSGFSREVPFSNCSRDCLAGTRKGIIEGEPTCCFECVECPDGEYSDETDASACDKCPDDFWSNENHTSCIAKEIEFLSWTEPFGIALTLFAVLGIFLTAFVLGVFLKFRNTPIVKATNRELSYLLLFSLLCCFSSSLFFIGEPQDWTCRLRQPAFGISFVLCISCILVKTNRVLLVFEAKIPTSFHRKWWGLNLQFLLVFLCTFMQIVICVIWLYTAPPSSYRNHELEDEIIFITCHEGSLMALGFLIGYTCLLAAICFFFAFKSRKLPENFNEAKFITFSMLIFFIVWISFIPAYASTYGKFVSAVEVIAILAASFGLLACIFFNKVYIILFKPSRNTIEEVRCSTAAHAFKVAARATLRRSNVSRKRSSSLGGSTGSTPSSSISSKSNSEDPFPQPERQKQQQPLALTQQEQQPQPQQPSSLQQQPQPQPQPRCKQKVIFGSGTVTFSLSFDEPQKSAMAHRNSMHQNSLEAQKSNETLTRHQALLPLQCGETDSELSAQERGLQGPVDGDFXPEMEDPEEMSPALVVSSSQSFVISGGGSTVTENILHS
Protocol: as §1, §2

[3] = target: T2, cCaSR; assay: cell-based
Protocol: (§3) The cCaSR expression constructs were stably-transfected in the mammalian cell line, HEK293/ T-REx/ natClytin. Transfections were performed by electroporation, following standard methodologies. Stably-transfected target and mock pools were obtained after 2–3 weeks of antibiotic selection, and clones were selected for testing. In order to evaluate the activity of each clone, 10 mM Calcium was injected onto the cells and the resulting luminescence was measured.
(§4) All compounds screened on the receptor were analysed in parallel with Calcium, on the HEK293/ T-REx/ natClytin-cCaSR or hCaSR stable or transient cell lines. Prior to the measurements, the cells were incubated with 10 µM of photoprotein substrate, Coelenterazine, prepared in Calcium-free Tyrode’s buffer at 37 °C for 3–4 h. All the data was captured using a FLIPR Tetra (Molecular Devices). A single or double injection protocol was used to capture the data for potential agonists and PAMs, respectively. The compounds tested were all prepared at desired concentration in Calcium-Free Tyrode’s buffer supplemented with 0.5% DMSO. For the activity determination of potential agonists, the single injection protocol was used, with CaCl2 as the positive control for each run. Each compound was injected into specific wells and the luminescence signal was measured for 1 min. for each compound. For potential PAMs, the double injection protocol was used. The first injection was identical to the one described above for potential agonists. A 20 min. resting period followed the first injection and a second injection of 0.5 mM CaCl2 in Calcium-free Tyrode’s buffer was injected to all wells, and the resulting luminescence signal was again measured for 1 min for each compound.
(§5) Dose–response curves were established by plotting signal amplitudes versus agonist concentration. For each compound, the % of maximum response was determined using a standard formula as follows:
(§6) The half maximal effective concentrations (EC50) were identified by nonlinear regression using a variable slope model with the equation Y = Bottom + (X^Hillslope)*(Top–Bottom)/ (X^HillSlope + EC50^HillSlope), where Y is the agonist concentration, Top and Bottom are the plateaus in the same units as Y and HillSlope is the Slope factor or Hill slope. […] In these cases the EC50 was noted as being higher than the maximum concentration used in the assay.

[4] = target: T2, cCaSR; assay: cCaSR PAM luminescence assay, double injection with 0.5 mM CaCl2, HEK293/T-REx/natClytin-cCaSR; conditions: Supplementary Table I, PAM assay, dash = no activity
[5] = target: T2, cCaSR
Protocol: as §3, §4, §5, §6

[6] = tested on: cCaSR; assay: cCaSR transiently expressed in HEK293/natClytin, agonist luminescence assay; type: cell-based, Felis catus; conditions: transiently expressed cCaSR; > 3 mM = maximal response not reached
Protocol: as §1, §2

[7] = tested on: cCaSR; conditions: for EC50 Ago (M): Supplementary Table I, dash = no activity
Protocol: as §3, §4, §5, §6

[8] = tested on: cCaSR; assay: cCaSR PAM luminescence assay, double injection with 0.5 mM CaCl2, HEK293/T-REx/natClytin-cCaSR; conditions: Supplementary Table I, PAM assay, dash = no activity
[9] = target: domestic cat Calcium Sensing Receptor (cCaSR) (Felis catus)
[10] = target: domestic cat Calcium Sensing Receptor (cCaSR) (Felis catus); remark: listed apart in the source
[11] = transiently expressed hCaSR, > 3 mM = maximal response not reached, read-out: hCaSR EC50
[12] = transiently expressed cCaSR, > 3 mM = maximal response not reached, read-out: cCaSR EC50
[13] = EC50 Value (heat map Fig. 5), cCaSR agonists, heat map
[14] = cCaSR activity, agonist assay, stable inducible cCaSR line, at least three wells
[15] = cCaSR stable EC50(mM), stably expressed cCaSR, Fig. 6b, > 3 mM = maximal response not reached
[16] = read-out: cCaSR activity, agonist assay, stable inducible cCaSR line, at least three wells
[17] = EC50 (M), agonist assay, stable inducible cCaSR line, > 0.01 M = maximal response not reached
[18] = EC50 Ago (M), Supplementary Table I, agonist assay, > 0.01 M = maximal response not reached

## C[C@H](NC(=O)CC[C@H](N)C(=O)O)C(=O)O [γ-Glu-Ala]
[1]; [11]
  EC50: > 3 mM
[2]; [12]
  EC50: > 3 mM
[3]; [13]
  EC50: 2.95 mM
[3]; [14]
  EC50: > 10 mM
[3]; [15]
  EC50: > 3 mM
[4]
  EC50 PAM (M): -

## Poly-L-arginine
[1]; transiently expressed hCaSR
  hCaSR EC50: 2.5 µg/mL
[2]; transiently expressed cCaSR
  cCaSR EC50: 2.9 µg/mL
[5]
  cCaSR stable EC50: 8.0 µg/mL
[5]; agonist assay, stable inducible cCaSR line, > 0.01 M = maximal response not reached
  EC50: 0.00101 mM
[5]; read-out: EC50 Ago, Supplementary Table I, agonist assay, > 0.01 M = maximal response not reached
  EC50: 0.00101 mM
[5]; [16]
  EC50: < 1 mM
[4]
  EC50 PAM (M): -

## CC(C)[C@H](NC(=O)CC[C@H](N)C(=O)O)C(=O)O [γ-Glu-Val]
[1]; [11]
  EC50: > 3 mM
[2]; [12]
  EC50: > 3 mM
[3]; [17]
  EC50: 4.52 mM
[3]; [18]
  EC50: 4.52 mM
[3]; [14]
  EC50: 1 to 10 mM
[3]; [15]
  EC50: > 3 mM
[4]
  EC50 PAM (M): -

## NCCCCN [Putrescine]
[1]; [11]
  EC50: > 3 mM
[2]; [12]
  EC50: > 3 mM
[3]; [15]
  EC50: > 3 mM

## N[C@@H](CCC(=O)O)C(=O)O [L-Glutamic acid]
[1]; [11]
  EC50: > 3 mM
[2]; [12]
  EC50: > 3 mM
[5]
  agonist activity on cCaSR (in words): strong agonist activity
[3]; [18]
  EC50: 9.16 mM
[3]; [13]
  EC50: 9.03 mM
[3]; [14]
  EC50: > 10 mM
[3]; cCaSR stable EC50(mM), […], > 3 mM = maximal response not reached
  EC50: > 3 mM
[4]
  EC50 PAM (M): -

## NCCCCNCCCN [Spermidine]
[1]
  EC50: 1.3 mM
[2]
  EC50: 1.1 mM
[5]
  agonist activity on cCaSR (in words): agonists
[3]; [17]
  EC50: 2.49 mM
[3]; [18]
  EC50: 2.5 mM
[3]; [14]
  EC50: 1 to 10 mM
[3]; [15]
  EC50: 2.3 mM
[4]
  EC50 PAM (M): -

## NC[C@H]1O[C@H](O[C@H]2[C@H](O)[C@@H](O[C@H]3O[C@H](CO)[C@@H](O)[C@H](N)[C@H]3O)[C@H](N)C[C@@H]2N)[C@H](N)C[C@@H]1O [Tobramycin, reference compound]
[1]; [11]
  EC50: 0.16 mM
[2]; [12]
  EC50: 0.28 mM
[5]; Supplementary Table I, agonist assay, dash = no activity
  EC50 Ago (M): -
[3]; [15]
  EC50: 0.04 mM

## CN[C@@H]1[C@@H](O)[C@@H](O[C@@H]2[C@@H](O)[C@H](O[C@H]3O[C@H]([C@@H](C)O)[C@@H](O)[C@H](O)[C@H]3N)[C@@H](N)C[C@H]2N)OC[C@]1(C)O [Geneticin, reference compound]
[1]; [11]
  EC50: 3.6 mM
[6]
  EC50: 3 mM
[7]; agonist assay
  EC50 Ago (M): -
[7]; [16]
  EC50: > 10 mM
[7]; read-out: cCaSR stable EC50, […], > 3 mM = maximal response not reached
  EC50: 1.1 mM
[8]
  EC50 PAM (M): -

## Poly-L-arginine (peptide)
[9]
  EC50 of agonist activity, luminescence (natClytin) in HEK T-Rex/natClytin cells inducibly expressing cCaSR, calcium-free buffer; activity grade +++: 0.00101 mM
[10]
  EC50 for cCaSR (stably and transiently expressed) against the EC50 for hCaSR, luminescence dose response in HEK293/natClytin cells: 2.5 fold

## CNc1ccc2oc(C[C@@H]3OC4(CC[C@@H]3C)O[C@H](C(C)C(=O)c3ccc[nH]3)[C@H](C)C[C@H]4C)nc2c1C(=O)O (some centres unmarked) [Calcium Ionophore, reference compound]
[7]; agonist assay
  EC50 Ago (M): -
[8]
  EC50 PAM (M): -

## N[C@@H](CC(=O)O)C(=O)O [L-Aspartic acid]
[1]; [11]
  EC50: 11.9 mM
[2]; [12]
  EC50: 11.8 mM
[5]
  agonist activity on cCaSR (in words): strong agonist activity
[3]; [17]
  EC50: 4.11 mM
[3]; [18]
  EC50: 4.11 mM
[3]; [14]
  EC50: 1 to 10 mM
[4]
  EC50 PAM (M): -

## CC[C@H](NC(=O)CC[C@H](N)C(=O)O)C(=O)NCC(=O)O [γ-Glu-Abu-Gly]
[1]; [11]
  EC50: > 3 mM
[2]; [12]
  EC50: > 3 mM
[3]; [17]
  EC50: 2.65 mM
[3]; [14]
  EC50: 1 to 10 mM
[3]; [15]
  EC50: > 3 mM
[4]
  EC50 PAM (M): -

## CC(C)[C@H](NC(=O)CC[C@H](N)C(=O)O)C(=O)NCC(=O)O [γ-Glu-Val-Gly]
[1]; [11]
  EC50: 4.1 mM
[2]; [12]
  EC50: 3.6 mM
[3]; [17]
  EC50: 4.22 mM
[3]; [15]
  EC50: 6.9 mM
[4]
  EC50 PAM (M): -
